Literature values, collected in patent US20190083000A1, “PERSONALIZED FOOD FOR DYSPHAGIA MANAGEMENT” (NESTEC S.A., priority 2016, published 2019).

settings: database Episuite 4.1

Molecule | Volatility: Air/water partition coefficient log K [w/v] | Lipophilicity: Oil/Water partition coefficient log Kow [w/v]
2-Methylpropanal | −2.31 | –
CC(=O)C(C)=O [2,3-Butanedione] | −5.09 | −1.34
CCC(=O)C(C)=O [2,3-Pentanedione] | −4.97 | −0.85
CCC(C)C=O (stereo not drawn) [2-Methylbutanal] | −2.20 | 1.23
CC(C)CC=O [3-Methylbutanal] | −2.19 | 1.23
CC=O [Acetaldehyde] | −2.56 | −0.17
CSC [Dimethylsulfide] | −1.49 | 0.92
CCCC(=O)OCC [Ethylbutyrate] | −1.79 | 1.85
C=C(C)[C@H]1CC=C(C)CC1 [Limonene] | 0.12 | 4.38
CS [Methanethiol] | −0.97 | 0.78
COc1cc(C=O)ccc1O [Vanillin] | −8.47 | 1.05
